Experimental data from patent US9017692B2, “Antimicrobial agent, bacterial strain, biosynthesis, and methods of use” (priority 2011, dated 2015).
Converted amounts (≈) assume the structure as drawn. Like-named read-outs stand apart in the source and are kept apart here.

Tests used:
PAE.2281 = experiment: MIC, CLSI broth microdilution, Gram-negative clinical isolates; type: cell-based, Pseudomonas aeruginosa; details: Pseudomonas aeruginosa, read-out: Minimum inhibitory concentration (MIC)
Experimental: (§1) Plates were incubated at 35° C. for 24 h.
(§2) The activity of paenibacterin was also tested against clinical isolates of the following Gram-negative bacterial strains: four strains of the species Pseudomonas aeruginosa (PAE), three strains of the species Acinetobacter baumannii (ABA), two strains of the species Escherichia coli (ECO), and four strains of the species Klebsiella pneumoniae (KPN). Particularly, the strains of Gram-negative bacteria included polymyxin B-resistant (PMB-R) and polymyxin B-sensitive (PMB-S) strains of each above listed species. The MICs were determined using the above described CLSI broth microdilution method, in which the method was performed with both non-binding surface coated (NBS) and polystyrene (PS) 96-well plates (Tables 11 and 12, respectively). The MICs were generally lower in the NBS 96-well plates as compared to the PS 96-well plates.

PAE.44 = experiment: as above; type: cell-based, Pseudomonas aeruginosa; details: for MIC: Pseudomonas aeruginosa, non-binding surface coated (NBS) 96-well plates, read-out: Minimum inhibitory concentration (MIC)
Experimental: as §1, §2

PAE.2325 = experiment: as above; type: cell-based, Pseudomonas aeruginosa; details: Pseudomonas aeruginosa, read-out: Minimum inhibitory concentration (MIC)
Experimental: as §1, §2

PAE.999 = experiment: as above; type: cell-based, Pseudomonas aeruginosa; details: Pseudomonas aeruginosa, read-out: Minimum inhibitory concentration (MIC)
Experimental: as §1, §2

KPN.2317 = experiment: as above; type: cell-based, Klebsiella pneumoniae; details: for MIC: Klebsiella pneumoniae, read-out: Minimum inhibitory concentration (MIC)
Experimental: as §1, §2

PMB-S, KPN.2461 = experiment: as above; type: cell-based, Klebsiella pneumoniae; details: for Minimum inhibitory concentration (MIC): KPN.2461, PS 96-well plates; for MIC: Klebsiella pneumoniae, KPN.2461 (PMB-S), NBS 96-well plates, read-out: Minimum inhibitory concentration (MIC)
Experimental: as §1, §2

KPN.674 = experiment: as above; type: cell-based, Klebsiella pneumoniae; details: Klebsiella pneumoniae, read-out: Minimum inhibitory concentration (MIC)
Experimental: as §1, §2

PMB-R, KPN.2463 = experiment: as above; type: cell-based, Klebsiella pneumoniae; details: for Minimum inhibitory concentration (MIC): KPN.2463, PS 96-well plates; for MIC: Klebsiella pneumoniae, KPN.2463 (PMB-R), NBS 96-well plates, read-out: Minimum inhibitory concentration (MIC)
Experimental: as §1, §2

ABA.2315 = experiment: as above; type: cell-based, Acinetobacter baumannii; details: for MIC: Acinetobacter baumannii, NBS 96-well plates, read-out: Minimum inhibitory concentration (MIC); for Minimum inhibitory concentration (MIC): PS 96-well plates
Experimental: as §1, §2

ABA.2232 = experiment: as above; type: cell-based, Acinetobacter baumannii; details: Acinetobacter baumannii, read-out: Minimum inhibitory concentration (MIC)
Experimental: as §1, §2

ABA.1570 = experiment: as above; type: cell-based, Acinetobacter baumannii; details: Acinetobacter baumannii, read-out: Minimum inhibitory concentration (MIC)
Experimental: as §1, §2

MSSA ATCC 29213 SAU.42 = experiment: microbe, parasite or virus in culture; details: Staphylococcus aureus, ATCC29213|MSSA, read-out: Minimum inhibitory concentration (MIC)
Experimental: (§3) The activity of paenibacterin against several strains of Gram-positive and Gram-negative foodborne pathogens is summarized in Table 10. The data is reported as minimum inhibitory concentrations (MIC) as an average of three replicates for paenibacterin against the various listed bacterial strains. […] MICs were determined according to the CLSI broth microdilution method (see, Clinical and Laboratory Standards Institute (CLSI). 2009. Methods for dilution antimicrobial susceptibility tests for bacteria that grow aerobically; approved standard. […]. CLSI, Wayne, Pa.). Briefly, HPLC-purified paenibacterin was dissolved in methanol and diluted to appropriate concentration with cation-adjusted Mueller-Hinton II broth (Difco). Aliquots (25 μl) of serially-diluted paenibacterin was dispensed into wells of a 96-well plate; an equal amount of 1/10 diluted overnight bacterial culture was added to wells. Plates were incubated at 35° C. for 24 h. Cell growth after incubation was examined and determined using a microtiter plate reader at 600 nm. Concentration of paenibacterin is determined based on a molecular weight of 1604 Da.
(§4) The activity of paenibacterin was further tested against clinical isolates of the following Gram-positive bacteria: methicillin-sensitive Staphylococcus aureus (MSSA), methicillin-resistant S. aureus (MRSA), vancomycin-sensitive Enterococcus faecalis, vancomycin-resistant E. faecalis (VRE), Streptococcus pneumoniae, and laboratory derived daptomycin-resistant (DR) MSSA, MRSA, and VRE strains. The MICs were determined using the above described CLSI broth microdilution method, in which the method was performed with non-binding surface coated (NBS) 96-well plates.

WT ATCC 29212 EFS.43 = experiment: microbe, parasite or virus in culture; details: Enterococcus faecalis, ATCC29212, read-out: Minimum inhibitory concentration (MIC)
Experimental: as §3, §4

[1] = tested on: DS-VRE ATCC 700802 EFS.807; experiment: microbe, parasite or virus in culture; details: Enterococcus faecalis, ATCC700802|VRE, read-out: Minimum inhibitory concentration (MIC)
Experimental: as §3, §4

ECO.2276 = experiment: MIC, CLSI broth microdilution, Gram-negative clinical isolates; type: cell-based, Escherichia coli; details: Escherichia coli, read-out: Minimum inhibitory concentration (MIC)
Experimental: as §1, §2

ATCC 25922 ECO.35 = experiment: as above; type: cell-based, Escherichia coli; details: Escherichia coli, read-out: Minimum inhibitory concentration (MIC)
Experimental: as §1, §2

WT ATCC 49619 SPN.31 = experiment: microbe, parasite or virus in culture; details: Streptococcus pneumoniae, ATCC49619, read-out: Minimum inhibitory concentration (MIC)
Experimental: as §3, §4

MRSA ATCC 43300 SAU.399 = experiment: microbe, parasite or virus in culture; details: Staphylococcus aureus, ATCC43300|MRSA, read-out: Minimum inhibitory concentration (MIC)
Experimental: as §3, §4

[2] = tested on: DR-MRSA from MW2 SP SAU.1616; experiment: microbe, parasite or virus in culture; details: Staphylococcus aureus, MRSA, read-out: Minimum inhibitory concentration (MIC)
Experimental: as §3, §4

[3] = tested on: DR-MSSA from SAU.42 SAU.278; experiment: microbe, parasite or virus in culture; details: Staphylococcus aureus, MSSA, read-out: Minimum inhibitory concentration (MIC)
Experimental: as §3, §4

[4] = tested on: DR-VRE from EFS.807 EFS.2731; experiment: microbe, parasite or virus in culture; details: Enterococcus faecalis, VRE, read-out: Minimum inhibitory concentration (MIC)
Experimental: as §3, §4

[5] = ATCC25922, ECO.35 (ATCC 25922), NBS 96-well plates
[6] = ATCC25922, ECO.35, PS 96-well plates

Row | SMILES | MIC (PAE.2281; NBS 96-well plates) | MIC (PAE.2281; PS 96-well plates) | MIC (PAE.44) | MIC (PAE.2325; NBS 96-well plates) | MIC (PAE.2325; PS 96-well plates) | MIC (PAE.999; NBS 96-well plates) | MIC (PAE.999; PS 96-well plates) | MIC (KPN.2317; NBS 96-well plates) | MIC (KPN.2317; PS 96-well plates) | Minimum inhibitory concentration (MIC) (PMB-S, KPN.2461) | MIC (PMB-S, KPN.2461) | MIC (KPN.674; NBS 96-well plates) | MIC (KPN.674; PS 96-well plates) | Minimum inhibitory concentration (MIC) (PMB-R, KPN.2463) | MIC (PMB-R, KPN.2463) | MIC (ABA.2315) | Minimum inhibitory concentration (MIC) (ABA.2315) | MIC (ABA.2232; NBS 96-well plates) | MIC (ABA.2232; PS 96-well plates) | MIC (ABA.1570; NBS 96-well plates) | other results
1 | C[C@@H](O)[C@H]1C(=O)N2C(C(=O)O)=C(S[C@@H]3CN[C@H](C(=O)N(C)C)C3)[C@H](C)[C@H]12 [meropenem #413, meropenem] | 1 to 2 µg/mL (≈ 2.61 to 5.22 µM) | 0.5 µg/mL (≈ 1.3 µM) | 1 µg/mL (≈ 2.61 µM) | 2 to 4 µg/mL (≈ 5.22 to 10.4 µM) | 2 µg/mL (≈ 5.22 µM) | > 8 µg/mL | > 8 µg/mL | 0.0625 µg/mL (≈ 0.163 µM) | 0.03 µg/mL (≈ 0.0782 µM) | >8 µg/mL | > 8 µg/mL | 0.0625 µg/mL (≈ 0.163 µM) | 0.03 µg/mL (≈ 0.0782 µM) | >8 µg/mL | > 8 µg/mL | > 8 µg/mL | >8 µg/mL | 0.125 to 0.25 µg/mL (≈ 0.326 to 0.652 µM) | 0.5 µg/mL (≈ 1.3 µM) | 8 µg/mL (≈ 20.9 µM) | Minimum inhibitory concentration (MIC) (KPN.2317; NBS 96-well plates): 0.06 µg/mL (≈ 0.156 µM); MIC (ABA.1570; PS 96-well plates): > 8 µg/mL; MIC (MSSA ATCC 29213 SAU.42): 0.125 µg/mL (≈ 0.326 µM); MIC (WT ATCC 29212 EFS.43): 2 µg/mL (≈ 5.22 µM); MIC [1]: 4 µg/mL (≈ 10.4 µM); MIC (ECO.2276; NBS 96-well plates): 0.03 to 0.06 µg/mL (≈ 0.0782 to 0.156 µM); MIC (ECO.2276; PS 96-well plates): 0.03 µg/mL (≈ 0.0782 µM); MIC (ATCC 25922 ECO.35; [5]): 0.03 µg/mL (≈ 0.0782 µM); MIC (ATCC 25922 ECO.35; [6]): 0.016 µg/mL (≈ 0.0417 µM)
2 | NC[C@H]1O[C@H](O[C@H]2[C@H](O)[C@@H](O[C@H]3O[C@H](CO)[C@@H](O)[C@H](N)[C@H]3O)[C@H](N)C[C@@H]2N)[C@H](N)C[C@@H]1O [tobramycin] | 1 to 2 µg/mL (≈ 2.14 to 4.28 µM) | 1 µg/mL (≈ 2.14 µM) | 0.5 µg/mL (≈ 1.07 µM) | > 32 µg/mL | > 32 µg/mL | 32 µg/mL (≈ 68.4 µM) | > 32 µg/mL | > 32 µg/mL | > 32 µg/mL | 32 µg/mL (≈ 68.4 µM) | 32 µg/mL (≈ 68.4 µM) | 8 µg/mL (≈ 17.1 µM) | 8 µg/mL (≈ 17.1 µM) | 32 µg/mL (≈ 68.4 µM) | 32 µg/mL (≈ 68.4 µM) | > 32 µg/mL | >32 µg/mL | 0.5 µg/mL (≈ 1.07 µM) | 1 µg/mL (≈ 2.14 µM) | 32 µg/mL (≈ 68.4 µM) | Minimum inhibitory concentration (MIC) (PAE.44; polystyrene (PS) 96-well plates): 0.5 µg/mL (≈ 1.07 µM); MIC (ABA.1570; PS 96-well plates): 16 µg/mL (≈ 34.2 µM); MIC (MSSA ATCC 29213 SAU.42): 0.5 µg/mL (≈ 1.07 µM); MIC (WT ATCC 49619 SPN.31): 0.25 µg/mL (≈ 0.535 µM); MIC (WT ATCC 29212 EFS.43): 8 µg/mL (≈ 17.1 µM); MIC (MRSA ATCC 43300 SAU.399): > 32 µg/mL; MIC [2]: 0.5 µg/mL (≈ 1.07 µM); MIC [3]: 0.5 µg/mL (≈ 1.07 µM); MIC [1]: > 32 µg/mL; MIC [4]: > 32 µg/mL; MIC (ECO.2276; NBS 96-well plates): 1 to 2 µg/mL (≈ 2.14 to 4.28 µM); MIC (ECO.2276; PS 96-well plates): 2 µg/mL (≈ 4.28 µM); MIC (ATCC 25922 ECO.35; [5]): 1 µg/mL (≈ 2.14 µM); MIC (ATCC 25922 ECO.35; [6]): 1 µg/mL (≈ 2.14 µM)
